“Also recorded” adds a separate entry of the source.
Columns and labels:
rat dural blood flow = assay: Decrease of dural blood flow induced by S1P; assay type: in vivo; details: 10 mg/kg through femoral vein; S1P 300 μg/kg into cisterna
From the text: Rat (CD(SD)IGS, male, Charles River Japan Inc., 10 weeks old-13 weeks old, 450-520 g) was anesthetized by injection of urethane (1.2 g/kg, s.c.), placed in the femoral vein with catheter (polyethylene tube SP10; I.D. 0.28 mm, O.D. 0.61 mm: Natsume Seisakusho Co. Ltd.) for compounds administration, and then blood flow to brain through only vertebral artery was made to happen by tying both sides of common carotid arteries. Next, the scalp was cut open and the head region was exposed in order to measure dural blood flow and administer into cisterna. In addition, the trachea was placed with catheter (polyethylene tube; size 7.9: Hibiki) and it connected to the artificial respirator. The measurement of dural blood flow was performed to transmit with 1a ser light to skull using Moon Laser Doppler Imager (Moor LDI) [about 11cm distant from measuring object, about 150 dots both of XY measurement resolution, scanning about 2.8×2.8 cm area (150dots/2.8 cm)]. In addition, measurement condition involved in flux calculation (FLUX; relative value) such as sensitivity -gain etc., was integrated within all experiment. The images of blood flow were captured through the capture software, moor LDI Measurement V3.08, and image data was treated with analyzed software, moor LDI Image Processing V3.08. […]

[1] = system: rat removed basilar artery; assay: Vasoconstrictor action of rat removed basilar artery; details: 3 μM (FIG. 3, FIG. 4)
Method: Basilar arteries were removed from male rat (CD(SD)IGS, male, Charles River Japan, Inc., 8 weeks old-10 weeks old, 350-450 g) and quickly immersed in cooled Krebs-Henseleit solution. Removed basilar arteries were divided by about 3 mm width with ophthalmic scissors and made as ringed samples. Samples hung in micro tissue organ bath (MTOB-1: Preimetech Corp.) filled with Krebs-Henseleit solution (37° C.). They were loaded with about 0.2 g resting tension stabilized for about 60 minutes, and then constrictive movement was recorded on a recorder (linearcoda WR3320: Graphtec Corp.) through strain compression amplifier (AP-601G, Nihon Kohden) from micro tissue organ bath.

removed rat heart = assay: Removed rat heart (Langendorff heart); details: Langendorff heart mode
From the text: Rat (CD(SD)IGS, male, Charles River Japan Inc., 8 weeks old-10 weeks old, 300-450 g) was anesthetized by diethylether, opened the abdominal cavity, injected intravenously with heparin and then, exsanguinated to death. The heart was quickly removed by opening the chest cavity and the removed heart was immersed into cooled Krebs-Henseleit solution. The tissues were trimmed away under the cooling, aortic arches were inserted into the heart functional measuring equipment and fixed with sutures without leaking out. The rat heart function was measured using the heart functional measuring equipment (model IPH-W2, Labo-support). The equipment was used in the Langendorff Heart mode (non-working heart mode) and load was 68-70 mmHg. […] Catheter filled with physiological saline was inserted into the left ventricle, the catheter was connected to the piezotransducer (DX-100, Nihon Kohden) and the left ventricle pressure (LVP) was measured through strain compression amplifier (AP-601G, Nihon Kohden). Heart rate was calculated using LVP data with the heart rate measuring equipment (AT-601G, Nihon Kohden) and dLVP/dt was calculated with differential processor (EQ-641G, Nihon Kohden). Probes of electromagnetic flowmeter (model FF-020T, inside diameter 2 mm, Nihon Kohden) were set on the way to the passage of nutrient solution and the flow rate of nutrient solution (corresponding the blood flow rate of coronary artery) was measured using electromagnetic flowmeter (MFV-3100, Nihon Kohden). Administration of S1P and the compounds was performed by injection of dilution with nutrient solution into the passage of nutrient solution using infusion pump. The injection rate of drug solution was set as the flow rate of nutrient solution before starting of administration. […] Using the above mentioned model, effect of EDG-5 antagonist on heart function was examined. […] EDG-5 antagonist, the compound (1), the compound (2) and the compound (3) increased the flow rate of nutrient solution. In addition, they increased contractive force of heart muscle at the same time. […] It was considered that S1P had no direct chronotropic action and inotropic action on pacemaker and heart muscle and S1P had lowering effect on heart function by contracting the coronary blood vessels and ischemia.

rat basilar artery = assay: Vasoconstrictor action of rat basilar artery induced by S1P into cisterna (in vivo); details: 10 μg/100 μL/rat, i.c., 30 minutes after S1P into cisterna
From the text: Rat (CD(SD)IGS, male, Charles River Japan Inc., 11 weeks old-13 weeks old, 400-550 g) was anesthetized by injection of urethane (1.2 g/kg, s.c.), incised scalp of occipital for administration of S1P into cisterna and then fixed to dorsal position. Rat was inserted into trachea with catheter and then, cut down with esophagus, and skull at the base of brain was exposed. Under the stereomicroscope, craniotomy was carefully operated with electric drill and scorper forceps. We made basilar artery expose, and it was done in the condition which arachnoid was left, and coating on basilar artery was exfoliated, and could be observed. Observation and image capture of basilar artery were performed using the stereomicroscope (Olympus Optics Inc., SZH-10) and charge-coupled device (CCD) camera (FUJIFILM, HC-2500) connected with it. Macscope (MITANI Corp.) was used as an Image capture software. […] Diameter of basilar artery was measured by selecting from an area having no branch in the center of basilar artery. The diameter was calculated by comparing with the length of micrometer (0.2 mm, 0.01 mm scale) shooted in the same condition. […] The calculation of percentage of basilar artery diameter was calculated by dividing diameter after the S1P administration by a pre-value. […]

**Q.** Cc1nn(C)c2nc(NNC(=O)Nc3cc(Cl)nc(Cl)c3)cc(C(C)C)c12 [compound (3), N-(2,6-dichloro-4-piridinyl)-2-(4-isopropyl-1,3-dimethyl-1H-pyrazolo[3,4-b]pyridin-6-yl)hydrazinecarboxamide] was tested. Which “inhibition of decrease of dural blood flow by S1P” value (rat dural blood flow) did it give?
**A.** inhibited; also recorded: suppression

**Q.** And the “inhibitory effect on vasoconstrictor action of rat removed basilar artery by S1P” value [1]?
**A.** inhibitory effect; also recorded: suppression

**Q.** And the “flow rate of nutrient solution (corresponding the blood flow rate of coronary artery)” value (removed rat heart)?
**A.** increased

**Q.** And the “contractive force of heart muscle” value (removed rat heart; EDG-5 antagonist)?
**A.** increased

**Q.** And the “inhibition of vasoconstrictor action of rat basilar artery by S1P (basilar artery diameter)” value (rat basilar artery)?
**A.** inhibited; also recorded: suppression
